Values after ≈ are worked out from the molar mass of the structure shown.
Experiments:
[1] = test system: 293 cells; experiment: TPEF monitoring of labeled 293 cells after SNOC and TPEN; assay type: cell-based; conditions: 10 mM SNOC, 0.1 mM TPEN, compared with AZn2
Description: Referring to FIG. 14, the TPEF intensity increased gradually with time and then decreased abruptly upon addition of 0.1 mM TPEN, a membrane permeable Zn^2+chelator that can effectively remove Zn^2+.

[2] = One-photon fluorescence intensity as a function of pH; assay type: physicochemical; conditions: biologically relevant pH; 1 μM probe, 30 mM MOPS, 100 mM KCl
Description: FIGS. 8a and 8b show the one-photon fluorescence intensities of AZn1 and AZn2 (1 μM for each), respectively, as a function of pH when free Zn^2+ were absent (∘) and present at a concentration of 1 μM (▪) in mixed solutions of 30 mM MOPS and 100 mM KCl.

[3] = Dissociation constants for Zn2+ from one- and two-photon fluorescence titration; assay type: binding
Description: MOPS buffer solutions (30 mM, pH 7.2, 0.1 M KCl) containing different amounts of ZnSO4 and 10 mM EGTA were prepared.
The concentration of free Zn^2+ ([Zn^2+]free) was calculated from KZn−EGTA^app, [EGTA]free, and [Zn^2+]total using Equation 1: [Zn^2+]free=[Zn^2+]total/(αZn×KZn−EGTA^app×[EGTA]free) (1) where KZn−EGTA^app=KZn−EGTA/αZnαEGTA, αZn=1+10^(pH−pK^1^)+10^(2pH−pK^1^−pK^2^)+10^(3pH−pK^1^−pK^2^−pK^3^) . . . , αEGTA=1+10^(pK^1^−pH+0.11)+10^(pK^1^+pK^2^−2pH+0.22)+10^(pK^1^+pK^2^+pK^3^−3pH+0.33) . . . , and [EGTA]free=[EGTA]total−[Zn^2+]total. Therefore,
Then, the stability constant (KZn−EGTA) of the EGTA−Zn^2+ complex was obtained by the known method. For EGTA (pH 7.2, 0.1 M KCl, 25° C.), pK1, pK2, pK3 and log^K^Zn−EGTA were 9.40, 8.79, 2.70 and 12.6, respectively. […]
In order to determine accurate dissociation constants for the two-photon probes, fluorescence titration curves were obtained from FIGS. 3a and 3e using Equation 2:
[formula] where F is the fluorescence intensity, Fmax is the maximum fluorescence intensity, Fo is the fluorescence intensity in the absence of Zn^2+, and [Zn^2+]free is the concentration of free Zn^2+.
The Kd value that best fits the titration curve ([…]) with Equation 2 was calculated by using the Excel program. […]

[4] = Measurement of water solubility; assay type: physicochemical; conditions: kinetic from dmso stock, H2O, 0.2% DMSO, maximum concentration in the linear region of fluorescence intensity vs probe concentration
Description: A small amount of each of the two-photon probes (AZn2 and AZn1) prepared in Examples 1 and 2 was dissolved in DMSO to prepare a stock solution ([…]). The solution was diluted to 6.0×10^−3˜6.0×10^−5 M and added to a cuvette containing 3.0 mL of H2O by using a micro syringe. In all cases, the concentration of DMSO in H2O was maintained to be 0.2%.
FIGS. 1a through 1d are plots showing variations in the fluorescence intensity of the two-photon probes at different concentrations.
The plots of FIGS. 1b and 1d show variations in the fluorescence intensity of AZn2 and AZn1 as a function of the probe concentration, respectively, and have a profile in which the fluorescence intensity increases linearly at low concentrations. […] The maximum concentration in the linear region was taken as the water solubility. The water solubilities of the two probes were all 3.0 μM.

[5] = test system: rat hippocampal slice; experiment: Monitoring of Zn2+ in rat hippocampal slice by TPM
Description: In this experimental example, TPM images were obtained from a part of acute rat hippocampal slice incubated with 10 μM AZn2 for 30 min at 37° C. Because the slice of a 14-day old rat was too big to show with one image, several TPM images were obtained in the same plane at ˜120 μm depth and combined. […]
The negligible TPEF (c) after addition of TPEN, which effectively remove the [Zn^2+]i, provides a supporting evidence for this observation.
When 50 mM KCl, a membrane depolarizer causing the release of Zn^2+, was added to the imaging solution, the TPEF intensity increased, and then decreased upon treatment with TPEN. Similar results can also be found in (d)-(f) of FIG. 15.

SMILES: Nc1ccc(NCCN(Cc2ccccn2)Cc2ccccn2)cc1 [AZn1]
- TPEF response after SNOC then TPEN [1]: the response was smaller
- pH sensitivity of fluorescence [2]: pH insensitivity
- detection limit for Zn2+ [3]: sub-nM range
- solubility [4]: 3 µM (≈ 1 µg/mL)

SMILES: COc1cc(NC(=O)CN(C)c2ccc3cc(C(C)=O)ccc3c2)ccc1NCCN(Cc1ccccn1)Cc1ccccn1 [AZn2]
- pH sensitivity of fluorescence [2]: pH insensitivity
- detection limit for Zn2+ [3]: sub-nM range
- solubility [4]: 3 µM (≈ 1.81 µg/mL)
- TPEF intensity after addition of KCl ([5]; 50 mM KCl, hilus of dentate gyrus): increased
- TPEF after addition of TPEN ([5]; hilus of dentate gyrus, FIG. 17): clear reduction in TPEF
- depth at which intracellular free Zn2+ is imaged in live tissue ([5]; rat hippocampal slice, 10 μM probe): 80-150 μm

Source: patent publication US8129137B2, “Two-photon probe for real-time monitoring of intracellular free zinc ions, method for preparing the probe and method for real-time monitoring of intracellular free zinc ions using the probe” (Korea University Industrial & Academic Collaboration …, priority 2008, dated 2012)
